These results are taken from paper PMC9798004 (Frontiers in Psychiatry, 2022).

Structures can show the parent of a compound that is named as a salt. No end group written: not given here.

Format in all cases: cell-based
One data set has as its system 168 GPCRs. Kind of data set: gpcrMAX panel 30 μM single-point β-arrestin screen (agonist and antagonist mode). Particulars: antagonist mode. How it is done:
Activity, or a “hit,” was defined as >30% in agonist mode, >35% in antagonist mode, or >50% in the orphan screen (agonist mode). Where these criteria were met, signal-to-noise (S/N) and coefficient of variation (CoV) were also calculated, defined as: […]
Agonist mode Antagonist modeS/N Compound mean/Baseline mean+(Baseline SD×3) EC80 mean/Compound-(Compound SD× 3)CoV Baseline mean/Compound mean-(Compound SD× 3) Compound mean/EC80 mean-(EC80 SD × 3)
Hits were verified to have S/N>1 and a CoV <1. Thresholds and subsequent validation were guided by Eurofins. Descriptive data (means ± S.E.M) was generated in Graphpad Prism (version 9.2.0, San Diego, CA).

A further data set addresses T1, GPR119 (Homo sapiens, UniProt Q8TDV5).
T1 construct: purchased Eurofins DiscoverX (PathHunter gpcrMAX)
T1 sequence (Q8TDV5 1-335): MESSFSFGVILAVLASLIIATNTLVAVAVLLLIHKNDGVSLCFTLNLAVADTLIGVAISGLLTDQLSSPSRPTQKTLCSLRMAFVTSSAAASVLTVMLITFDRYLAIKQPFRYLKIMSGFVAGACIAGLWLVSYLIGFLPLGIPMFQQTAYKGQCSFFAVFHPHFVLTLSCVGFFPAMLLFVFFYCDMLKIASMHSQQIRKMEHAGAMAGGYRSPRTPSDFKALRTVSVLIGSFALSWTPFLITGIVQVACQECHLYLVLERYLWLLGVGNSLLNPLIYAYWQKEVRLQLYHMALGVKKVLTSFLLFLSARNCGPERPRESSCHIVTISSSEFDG
The data set is described as follows: PathHunter β-arrestin assay. Particulars: for inhibition in single-point screen: antagonist mode, 30 μM.

For the next data set, the target named is T2, CCR4 (Homo sapiens, UniProt P51679).
T2 sequence (P51679 1-360): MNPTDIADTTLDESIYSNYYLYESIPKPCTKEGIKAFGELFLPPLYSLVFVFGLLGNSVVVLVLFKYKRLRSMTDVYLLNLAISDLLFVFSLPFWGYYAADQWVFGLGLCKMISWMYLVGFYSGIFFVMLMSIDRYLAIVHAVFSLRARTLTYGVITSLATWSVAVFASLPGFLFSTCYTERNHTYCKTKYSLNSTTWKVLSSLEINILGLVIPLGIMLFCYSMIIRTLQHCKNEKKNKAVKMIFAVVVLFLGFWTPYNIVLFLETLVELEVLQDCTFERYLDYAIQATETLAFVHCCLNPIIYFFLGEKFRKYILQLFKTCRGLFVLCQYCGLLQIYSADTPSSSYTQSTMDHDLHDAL
Kind of data set: PathHunter β-arrestin assay. Particulars: for EC80: control agonist. The method, then: (§1) Follow up experiments were prioritized based on the difference between S/N and CoV. Targets with a >5-fold difference between S/N and CoV were investigated for their potential contribution to the AMB-FUBINACA toxidrome with 10-point concentration-response curves generated in technical replicate (range 1.5–30 μM) using the EC80 of the relevant agonist, where applicable in antagonist mode. Simultaneous agonist and antagonist curves were run in parallel to ensure reliability of the assay (see Supplementary Table 2), with both RC50 and signal to background aligning with historical averages, and Z' >0.5. RC50 was estimated using a four-parameter fit (CBIS Data Analysis Suite, ChemInnovation, San Diego, CA) on normalized data.

The target in a further data set is PTGER4 (Homo sapiens, UniProt P35408). The data set is described as follows: PathHunter β-arrestin assay. The conditions noted are these: follow-up assays, control antagonist. How it is done: as §1
Sequence of PTGER4 (P35408 whole entry): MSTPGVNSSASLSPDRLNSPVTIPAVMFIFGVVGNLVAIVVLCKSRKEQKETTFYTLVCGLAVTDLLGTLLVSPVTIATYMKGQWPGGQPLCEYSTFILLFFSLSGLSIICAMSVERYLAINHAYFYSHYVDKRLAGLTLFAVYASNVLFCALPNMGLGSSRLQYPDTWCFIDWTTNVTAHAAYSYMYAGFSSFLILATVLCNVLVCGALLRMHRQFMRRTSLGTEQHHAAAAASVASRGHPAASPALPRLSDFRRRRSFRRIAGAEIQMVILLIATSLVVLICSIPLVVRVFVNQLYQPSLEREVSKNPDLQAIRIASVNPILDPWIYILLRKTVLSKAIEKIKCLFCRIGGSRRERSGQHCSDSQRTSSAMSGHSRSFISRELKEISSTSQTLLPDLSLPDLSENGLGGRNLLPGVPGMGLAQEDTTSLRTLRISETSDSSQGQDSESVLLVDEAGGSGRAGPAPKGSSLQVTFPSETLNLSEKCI
A further data set concerns the target P2RY6 (Homo sapiens, UniProt Q15077). The data set is described as follows: PathHunter β-arrestin assay. How it is done: as §1
Data set [1] relates to AtT20 cells wildtype (WT). Kind of data set: LDH release cytotoxicity assay. The conditions noted are these: 30 μM. How it is done: AtT20 cells expressing either human CB1 (hCB1) or CB2 (hCB2) receptors or wildtype (WT) were grown to confluence in T75 cm^2 flasks in Dulbecco's modified eagle medium containing 10% fetal bovine serum, 100 U penicillin/streptomycin, and 80 μg/mL hygromicyin (Sigma-Aldrich/Merck; Castle Hill, NSW, Australia). Cells were plated in 96-well-microplates at 30,000 cells per well and allowed to adhere overnight in 5% CO2. The following morning, cells were treated with either vehicle (0.1% DMSO; negative control), 30 μM Δ^9-THC, or 30 μM AMB-FUBINACA. At 1 or 6 h, the amount of lactate dehydrogenase in the cell media was tested, and compared with positive control (lysed cells) as per manufacturer's instructions (Dojindo Molecular Technologies, Inc.; Rockville, MD, USA), with readings performed on a Clariostar Plus plate reader (BMG Labtech, Mornington, VIC, Australia). Experiments were performed in triplicate. In order to measure any accumulating LDH, media was not changed after initial incubation. Data is represented as means ± S.E.M. A two-way ANOVA with was performed on the data at each time point, with Tukey's multiple comparison test (α = 0.05). A p < 0.05 was considered statistically significant.

The next data set has as its target T3, ADRA2C (Homo sapiens, UniProt P18825).
T3 sequence (P18825 1-462): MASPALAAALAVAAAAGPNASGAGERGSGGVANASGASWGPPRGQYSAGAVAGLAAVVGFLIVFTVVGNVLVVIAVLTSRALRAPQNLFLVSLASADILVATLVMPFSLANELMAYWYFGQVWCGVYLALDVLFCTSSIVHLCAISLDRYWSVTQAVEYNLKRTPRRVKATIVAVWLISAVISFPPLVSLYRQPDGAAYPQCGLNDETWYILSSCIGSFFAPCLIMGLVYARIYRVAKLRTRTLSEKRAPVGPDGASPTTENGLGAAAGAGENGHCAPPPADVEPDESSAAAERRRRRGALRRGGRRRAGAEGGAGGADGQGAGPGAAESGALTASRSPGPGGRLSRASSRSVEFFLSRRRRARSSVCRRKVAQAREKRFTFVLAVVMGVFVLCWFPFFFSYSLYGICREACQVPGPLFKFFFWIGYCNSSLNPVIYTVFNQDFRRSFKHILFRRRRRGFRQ
The data set is described as follows: PathHunter β-arrestin assay. Particulars: control agonist.

A further data set has as its target GPR35 (Homo sapiens, UniProt Q9HC97). Kind of data set: PathHunter β-arrestin assay. Particulars: control agonist.
Another data set addresses T4, CCR6 (Homo sapiens, UniProt P51684).
T4 construct: purchased Eurofins DiscoverX (PathHunter gpcrMAX)
T4 sequence (P51684 1-374): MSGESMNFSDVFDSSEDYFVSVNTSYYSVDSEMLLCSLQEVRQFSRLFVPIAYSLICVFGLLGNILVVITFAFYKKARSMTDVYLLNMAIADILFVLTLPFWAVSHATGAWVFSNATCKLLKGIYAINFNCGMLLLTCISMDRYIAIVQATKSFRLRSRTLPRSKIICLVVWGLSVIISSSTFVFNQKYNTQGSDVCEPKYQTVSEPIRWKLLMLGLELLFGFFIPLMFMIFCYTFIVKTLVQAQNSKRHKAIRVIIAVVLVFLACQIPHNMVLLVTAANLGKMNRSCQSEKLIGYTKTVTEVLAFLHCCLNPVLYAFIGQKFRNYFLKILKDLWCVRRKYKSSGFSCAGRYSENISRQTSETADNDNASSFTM
Kind of data set: PathHunter β-arrestin assay. Particulars: control agonist. How it is done: as §1

Another data set has as its target T5, HCRTR1 (Homo sapiens, UniProt O43613).
T5 sequence (O43613 1-425): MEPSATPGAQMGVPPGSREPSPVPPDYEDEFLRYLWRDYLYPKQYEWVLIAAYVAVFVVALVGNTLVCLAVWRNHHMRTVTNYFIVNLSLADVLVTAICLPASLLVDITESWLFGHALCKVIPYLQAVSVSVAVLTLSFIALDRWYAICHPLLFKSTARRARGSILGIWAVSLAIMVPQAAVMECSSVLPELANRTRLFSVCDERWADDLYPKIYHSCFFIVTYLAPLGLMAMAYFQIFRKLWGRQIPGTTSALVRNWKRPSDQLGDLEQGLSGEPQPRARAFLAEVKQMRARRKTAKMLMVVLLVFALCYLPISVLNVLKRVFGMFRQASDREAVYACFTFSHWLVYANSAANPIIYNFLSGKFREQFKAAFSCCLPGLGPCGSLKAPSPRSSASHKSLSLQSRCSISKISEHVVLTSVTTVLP
The data set is described as follows: PathHunter β-arrestin assay. Particulars: control agonist. The method, then:
as §1

The target in the next data set is T6, CCR9 (Homo sapiens, UniProt P51686).
T6 construct: purchased Eurofins DiscoverX (PathHunter gpcrMAX)
T6 sequence (P51686 1-369): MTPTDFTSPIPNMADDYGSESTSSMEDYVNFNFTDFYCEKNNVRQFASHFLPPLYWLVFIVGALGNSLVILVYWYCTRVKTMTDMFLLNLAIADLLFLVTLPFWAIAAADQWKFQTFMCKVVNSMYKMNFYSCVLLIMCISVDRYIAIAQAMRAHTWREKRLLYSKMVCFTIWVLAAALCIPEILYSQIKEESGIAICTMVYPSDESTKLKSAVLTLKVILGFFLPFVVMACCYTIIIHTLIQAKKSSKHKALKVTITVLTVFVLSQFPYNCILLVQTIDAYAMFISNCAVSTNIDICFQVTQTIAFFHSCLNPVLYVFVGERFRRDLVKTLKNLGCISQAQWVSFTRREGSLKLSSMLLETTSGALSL
The data set is described as follows: PathHunter β-arrestin assay. Particulars: control agonist. How it is done: as §1

The target in the next data set is CCR8 (Homo sapiens, UniProt P51685). The data set is described as follows: PathHunter β-arrestin assay. The conditions noted are these: control agonist. The method, then:
as §1

[2] abbreviates: follow-up assays, control antagonist.
The mark [3] stands for this setting: follow-up concentration-response assays.

Sequence of GPR35 (Q9HC97 whole entry): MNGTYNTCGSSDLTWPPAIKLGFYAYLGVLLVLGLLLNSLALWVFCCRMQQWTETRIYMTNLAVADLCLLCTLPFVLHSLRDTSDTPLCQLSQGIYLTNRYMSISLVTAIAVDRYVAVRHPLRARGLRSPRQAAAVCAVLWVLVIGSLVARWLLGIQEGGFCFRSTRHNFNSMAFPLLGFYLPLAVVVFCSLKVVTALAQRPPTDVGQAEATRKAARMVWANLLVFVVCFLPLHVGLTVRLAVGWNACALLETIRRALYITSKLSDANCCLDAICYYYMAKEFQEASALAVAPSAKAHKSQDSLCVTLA
Sequence of P2RY6 (Q15077 whole entry): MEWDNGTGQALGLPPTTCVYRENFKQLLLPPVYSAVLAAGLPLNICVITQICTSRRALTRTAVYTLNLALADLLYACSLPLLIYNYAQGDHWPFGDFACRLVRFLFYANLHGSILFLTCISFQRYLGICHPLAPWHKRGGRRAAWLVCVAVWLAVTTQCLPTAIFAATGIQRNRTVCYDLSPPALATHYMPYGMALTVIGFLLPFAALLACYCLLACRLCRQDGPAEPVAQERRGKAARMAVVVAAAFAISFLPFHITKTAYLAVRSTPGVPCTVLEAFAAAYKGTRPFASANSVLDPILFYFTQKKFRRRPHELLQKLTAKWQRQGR

As to `COC(=O)C(NC(=O)c1nn(CCCCF)c2ccccc12)C(C)(C)C` (centres unmarked) [4F-MDMB-BUTINACA], in the data set on 168 GPCRs, the “number of off-targets inhibited (>35%)” value was 16. In the case of `CCCCCn1nc(C(=O)NC23CC4CC(CC(C4)C2)C3)c2ccccc21` [AKB-48], on GPR119, the “inhibition in single-point screen” value is listed as “inhibited to the greatest extent of any antagonist mode target”. In turn, `COc1cc2nc(N3CCC(N4CCCCC4)CC3)nc(NC3CCCCCC3)c2cc1OC` [C 021 dihydrochloride] showed an IC50 on CCR4 (setting [2]) of 0.00258 µM.

Consider `CCCCCn1nc(C(=O)NC(C)(C)c2ccccc2)c2ccccc21` [CUMYL-PINACA], for which the “inhibition in single-point screen” value at GPR119 is “inhibited to the greatest extent of any antagonist mode target”. Further, the “number of off-targets inhibited (>35%)” value in the data set with 168 GPCRs is on record as “inhibited the greatest number of targets”.

Turning to `CCCCc1nn(-c2ccccc2C(F)(F)F)c(=O)n1Cc1ccc(-c2ccccc2S(=O)(=O)NC(=O)c2sccc2C)cc1` [L 161,982], on PTGER4, half-maximal inhibition (IC50) required 0.0159 µM. `S=C=Nc1cccc(NC(=S)NCCCCNC(=S)Nc2cccc(N=C=S)c2)c1` [MRS 2578] had an IC50 on P2RY6 (setting [2]) of 2.52 µM. Regarding `CCCCCCCC/C=C\CCCCCCCC(=O)NCCO` [Oleoyl Ethanolamide], on GPR119 (screen, control agonist, HEK, 37C, 2HR), the EC80 is 4.31 µM. As for `CCCCCn1cc(C(=O)Oc2cccc3cccnc23)c2ccccc21` [PB-22], in the data set on 168 GPCRs, the “number of off-targets inhibited (>35%)” value worked out at 20. In the case of `CCCCCc1cc(O)c2c(c1)OC(C)(C)[C@@H]1CCC(C)=C[C@@H]21` [THC, Δ^9-tetrahydrocannabinol], in data set [1] (1 h), the “LDH in cell media, normalized to total LDH” value is 22.40 ± 3.44%. For the same molecule, in [1] (6 h), the “LDH increase compared with vehicle” value is “no effect was observed”. At P2RY6 (follow-up concentration-response assays, control agonist), `O=c1ccn([C@@H]2O[C@H](COP(=O)(O)OP(=O)(O)O)[C@@H](O)[C@H]2O)c(=O)[nH]1` [UDP] had an EC80 of 0.07488 µM.

`Brc1c(NC2=NCCN2)ccc2nccnc12` [UK 14,304]: the EC80 turned out to be 0.1231 µM at ADRA2C (setting [3]) and 0.111 µM on ADRA2C (screen, CHO, RT, 2HR).

`CCCOc1ccccc1-c1nc2nn[nH]c2c(=O)[nH]1` [Zaprinast]: the EC80 is 4.048 µM on GPR35 (setting [3]) and 12.1 µM at GPR35 (screen, CHO, 37C, 2HR). Take CCL20: control agonist: the EC80 with CCR6 (setting [3]) was found to be 0.04468 µM; with CCR6 (screen, CHO, 37C, 2HR) it was 0.0447 µM.

For “Orexin A (QPLPDCCRQKTCSCRLYELLHGAGNHAAGILTL; not fully specified (residue 1, C-terminus, bridges); cysteine pairing not given here; UniProt O43612 34-66, looked up) [control agonist]”, the EC80 with HCRTR1 (setting [3]) turned out to be 0.01062 µM; with HCRTR1 (screen, CHO, 37C, 2HR), 0.0106 µM.

B1: CCL25: control agonist (protein, UniProt O15444 24-150, looked up)
C-C motif chemokine 25: QGVFEDCCLAYHYPIGWAVLRRAWTYRIQEVSGSCNLPAAIFYLPKRHRKVCGNPKSREVQRAMKLLDARNKVFAKLHHNTQTFQAGPHAVKKLSSGNSKLSSSKFSNPISSSKRNVSLLISANSGL
With B1, the EC80 with CCR9 (setting [3]) was 0.35 µM; with CCR9 (screen, CHO, 37C, 2HR), 0.37 µM.

B2: CCL22: control agonist (protein, UniProt O00626 25-93, looked up)
C-C motif chemokine 22: GPYGANMEDSVCCRDYVRYRLPLRVVKHFYWTSDSCPRPGVVLLTFRDKEICADPRVPWVKMILNKLSQ
For the molecule B2, the EC80 with CCR4 (setting [3]) is 0.01961 µM; with CCR4 (screen, CHO, 37C, 2HR), 0.00654 µM.

B3: CCL1: control agonist (protein, UniProt P22362 24-96, looked up)
C-C motif chemokine 1: KSMQVPFSRCCFSFAEQEIPLRAILCYRNTSSICSNEGLIFKLKRGKEACALDTVGWVQRHRKMLRHCPSKRK
For the molecule B3, the EC80 with CCR8 (setting [3]) was determined as 0.1574 µM; with CCR8 (screen, CHO, 37C, 2HR) it was 0.157 µM.
